Literature values as cited in patent US10881615B2, “Pharmaceutical composition comprising dabigatran etexilate, and preparation method, solid preparation and use thereof” (Chia Tai Tianqing Pharmaceutical Group Co., Ltd., priority 2014, dated 2021).

Conditions: medium at pH of >4.0

## CCCCCCOC(=O)NC(=N)c1ccc(NCc2nc3cc(C(=O)N(CCC(=O)OCC)c4ccccn4)ccc3n2C)cc1 [dabigatran etexilate, 3-[(2-{[4-(hexyloxycarbonylamino-imino-methyl)-phenylamino]-methyl}-1-methyl-1H-benzimidazol-5-yl-carbonyl)-pyridin-2-yl-amino]-ethyl propionate]
  Solubility: almost insoluble
